*1 amine or outer side, *2 acyl side, *3 side chain or, on linkers, in order; H or OH if unused. Where a SMILES comes first, the peptide text is derived from it. Bridges are numbered along the chain shown (N, C = ends). [ ]: non-standard residue; d: D form. The star is where a group is joined. Ala(piperidin-4-yl) = O=C([C@H](CC1CCN([*:3])CC1)N[*:1])[*:2]; DOTA = O=C(O)CN1CCN(CC(=O)O)CCN(CC(=O)*)CCN(CC(=O)O)CC1; 2Nal = N[C@@H](Cc1ccc2ccccc2c1)C(=O)O; tBuAla = CC(C)(C)C[C@H](N)C(=O)O; αMeP = C[C@@]1(C(=O)O)CCCN1; Nle = CCCC[C@H](N)C(=O)O; Nva = CCC[C@H](N)C(=O)O; CH2 = C([*:1])[*:2]
Molecular target: T1, DLL3 (Homo sapiens, UniProt Q9NYJ7)
T1 sequence (Q9NYJ7 27-618): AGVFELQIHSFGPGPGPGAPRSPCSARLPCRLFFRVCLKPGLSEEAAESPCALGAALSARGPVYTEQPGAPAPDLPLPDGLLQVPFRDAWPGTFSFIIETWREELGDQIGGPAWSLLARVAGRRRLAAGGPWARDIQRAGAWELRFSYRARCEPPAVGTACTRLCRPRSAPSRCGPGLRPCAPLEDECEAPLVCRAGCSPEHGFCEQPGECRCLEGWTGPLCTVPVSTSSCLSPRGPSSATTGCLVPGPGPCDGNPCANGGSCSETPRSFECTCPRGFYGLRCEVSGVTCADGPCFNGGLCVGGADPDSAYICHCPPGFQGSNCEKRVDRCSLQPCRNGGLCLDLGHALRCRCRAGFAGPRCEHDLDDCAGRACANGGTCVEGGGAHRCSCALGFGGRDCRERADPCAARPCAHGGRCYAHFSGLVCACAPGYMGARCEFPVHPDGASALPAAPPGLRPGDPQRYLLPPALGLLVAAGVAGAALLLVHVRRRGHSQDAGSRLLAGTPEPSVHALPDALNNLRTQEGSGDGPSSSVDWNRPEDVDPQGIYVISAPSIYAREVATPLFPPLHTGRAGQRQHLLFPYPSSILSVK
Experiment: SPR KD, biotinylated human DLL3 on streptavidin chip (Table 8)
Parameters: biotin (biotinylated)
Settings: biotinylated human DLL3 on streptavidin sensor chip, 25° C., 1:1 binding model; read-out: SPR KD
Text: Biotinylated target ligand human DLL3 was immobilized on a streptavidin sensor chip. A reference surface was set up for nonspecific binding and refractive index changes. […] Sensorgram curves were fitted with 1:1 binding model, and affinity and kinetic parameters were obtained using Biacore Insight evaluation 4.0. software.

Q: For CC(=O)N[C@@H](Cc1c[nH]c2ccccc12)C(=O)N[C@H](C(=O)N[C@@H](CC(C)(C)C)C(=O)N[C@H]1CSCSC[C@@H](C(=O)N[C@@H](Cc2c[nH]c3ccccc23)C(=O)N2CCC[C@@]2(C)C(N)=O)NC(=O)[C@H](CC(=O)O)NC(=O)[C@H](CCCCNC(=O)CN2CCN(CC(=O)O)CCN(CC(=O)O)CCN(CC(=O)O)CC2)NC(=O)[C@H](Cc2ccc3ccccc3c2)NC(=O)[C@H](CC(N)=O)NC(=O)[C@H](CC2CCNCC2)NC1=O)[C@@H](C)O [compound 437, Ac-W-T-(t-Bu-Ala)-C(1)-[3-(4-piperidinyl)-Ala]-N-(2Nal)-Lys(DOTA)-D-C(1)-W-(aMe-P)-CONH2] (Ac-WT[tBuAla]C[Ala(piperidin-4-yl)]N[2Nal]K(DOTA)DCW[αMeP]-NH2; linker 4-10 via CH2), which Kd is on record?
A: < 1 nM

Q: With CC(=O)NCCCC[C@@H](NC(=O)[C@@H]1CCCN1C(=O)[C@H](Cc1c[nH]c2ccccc12)NC(=O)[C@@H]1CSCSC[C@H](NC(=O)[C@H](CC(C)(C)C)NC(=O)[C@@H](NC(=O)[C@H](Cc2c[nH]c3ccccc23)NC(C)=O)[C@@H](C)O)C(=O)N[C@@H](CC2CCNCC2)C(=O)N[C@@H](CC(N)=O)C(=O)N[C@@H](Cc2ccc3ccccc3c2)C(=O)N[C@@H](CCCCNC(=O)CN2CCN(CC(=O)O)CCN(CC(=O)O)CCN(CC(=O)O)CC2)C(=O)N[C@@H](CC(=O)O)C(=O)N1)C(N)=O [compound 438, Ac-W-T-(t-Bu-Ala)-C(1)-[3-(4-piperidinyl)-Ala]-N-(2Nal)-Lys(DOTA)-D-C(1)-W-P-[D-Lys(Ac)]-CONH2] (Ac-WT[tBuAla]C[Ala(piperidin-4-yl)]N[2Nal]K(DOTA)DCWP[dK](Ac)-NH2; linker 4-10 via CH2) as the compound, how does the Kd read?
A: < 1 nM

Q: With CC(=O)NCCCC[C@@H](NC(=O)[C@@H]1CCCN1C(=O)[C@H](Cc1c[nH]c2ccccc12)NC(=O)[C@@H]1CSCSC[C@H](NC(=O)[C@H](CC(C)(C)C)NC(=O)[C@@H](NC(=O)[C@H](Cc2c[nH]c3ccccc23)NC(C)=O)[C@@H](C)O)C(=O)N[C@@H](CC2CCNCC2)C(=O)N[C@@H](CC(N)=O)C(=O)N[C@@H](Cc2ccc3ccccc3c2)C(=O)N[C@@H](CCCCNC(=O)CN2CCN(CC(=O)O)CCN(CC(=O)O)CCN(CC(=O)O)CC2)C(=O)N[C@@H](CC(=O)O)C(=O)N1)C(=O)O [compound 439, Ac-W-T-(t-Bu-Ala)-C(1)-[3-(4-piperidinyl)-Ala]-N-(2Nal)-Lys(DOTA)-D-C(1)-W-P-[D-Lys(Ac)]-COOH] (Ac-WT[tBuAla]C[Ala(piperidin-4-yl)]N[2Nal]K(DOTA)DCWP[dK](Ac)-OH; linker 4-10 via CH2) as the compound, how does the Kd read?
A: < 1 nM

Q: Which Kd does the source give for CCC[C@H](NC(C)=O)C(=O)N[C@@H](Cc1c[nH]c2ccccc12)C(=O)N[C@H](C(=O)N[C@H](C(=O)N[C@H]1CSSC[C@@H](C(=O)N[C@@H](Cc2c[nH]c3ccccc23)C(=O)N2CCC[C@H]2C(N)=O)NC(=O)[C@H](CC(=O)O)NC(=O)[C@H](Cc2cnc[nH]2)NC(=O)[C@H](Cc2c[nH]c3ccccc23)NC(=O)[C@H](CC(N)=O)NC(=O)[C@H](CC(N)=O)NC1=O)[C@@H](C)CC)[C@@H](C)O [compound 440, Ac-(L-Nva)-W-T-I-C(3)-N-N-W-H-D-C(3)-W-P-CONH2] (Ac-[Nva]WTICNNWHDCWP-NH2; disulfide 5-11) here?
A: 10 to 100 nM

Q: With CCCC[C@H](NC(C)=O)C(=O)N[C@@H](Cc1c[nH]c2ccccc12)C(=O)N[C@H](C(=O)N[C@H](C(=O)N[C@H]1CSSC[C@@H](C(=O)N[C@@H](Cc2c[nH]c3ccccc23)C(=O)N2CCC[C@H]2C(N)=O)NC(=O)[C@H](CC(=O)O)NC(=O)[C@H](Cc2cnc[nH]2)NC(=O)[C@H](Cc2c[nH]c3ccccc23)NC(=O)[C@H](CC(N)=O)NC(=O)[C@H](CC(N)=O)NC1=O)[C@@H](C)CC)[C@@H](C)O [compound 441, Ac-(L-Nle)-W-T-I-C(3)-N-N-W-H-D-C(3)-W-P-CONH2] (Ac-[Nle]WTICNNWHDCWP-NH2; disulfide 5-11) as the compound, how does the Kd read?
A: 10 to 100 nM

System: nude mice bearing SHP-77 tumors
Experiment: Ex vivo biodistribution of radiolabeled peptides (% IA/g) in nude mice bearing SHP-77 tumors
Settings: [177Lu]Lu labelling, 24 hours post-injection, intravenous
Protocol: Mice were intravenously injected (via the lateral tail vein) with a bolus dose of the radiolabeled peptides for ex vivo biodistribution studies when tumor volumes were in range of 200-400 mm^3 for xenograft mice and when age of the mice was 5-7 weeks for tumor naïve mice studies. To assess the amount of radionuclide injected into individual mice the syringe was assayed in a dose calibrator before and after injection for [^177Lu]Lu-peptide, then the injected dose was determined from the weight difference and concentration of the radionuclide solution.
Mice were euthanized at pre-determined time points and selected tissues were resected and collected into pre-weighed tubes. The tubes were then reweighed post resection, the difference giving the weight of each tissue. Radioactivity in each tissue was measured using a gamma counter. Counts were decay corrected to the time of injection and percentage of injected activity per gram (% IA/g) was calculated for each tissue based on the injected activity into each individual mouse. Injected activity was converted to counts based on the sensitivity of the gamma counter. The counts in tissue were then converted to the percentage of injected activity and this was divided by the mass of tissue to give % IA/g.

Q: Which “kidney uptake (% IA/g)” value does the source give for CC(=O)N[C@@H](Cc1c[nH]c2ccccc12)C(=O)N[C@H](C(=O)N[C@@H](CC(C)(C)C)C(=O)N[C@H]1CSCSC[C@@H](C(=O)N[C@@H](Cc2c[nH]c3ccccc23)C(=O)N2CCC[C@@]2(C)C(N)=O)NC(=O)[C@H](CC(=O)O)NC(=O)[C@H](CCCCNC(=O)CN2CCN(CC(=O)O)CCN(CC(=O)O)CCN(CC(=O)O)CC2)NC(=O)[C@H](Cc2ccc3ccccc3c2)NC(=O)[C@H](CC(N)=O)NC(=O)[C@H](CC2CCNCC2)NC1=O)[C@@H](C)O [compound 437, Ac-W-T-(t-Bu-Ala)-C(1)-[3-(4-piperidinyl)-Ala]-N-(2Nal)-Lys(DOTA)-D-C(1)-W-(aMe-P)-CONH2] (Ac-WT[tBuAla]C[Ala(piperidin-4-yl)]N[2Nal]K(DOTA)DCW[αMeP]-NH2; linker 4-10 via CH2) here?
A: C (“C” represents 0 < % IA/g ≤ 10 in)

Q: And the “tumor uptake (% IA/g)” value?
A: B (“B” represents % IA/g > 5 in tumor)

— patent publication US20250049970A1, “DLL3 TARGETING PEPTIDES AND CONSTRUCTS THEREOF” (MARIANA ONCOLOGY INC., priority 2023, published 2025)
